# Test results: patent US11066368B2, “Process for the preparation and particle size reduction of pirfenidone” (Laurus Labs Limited, priority 2016, dated 2021)
# What was measured:
# [1] = Particle size distribution after wet milling in colloid mill (IKA MK 2000/05); assay type: physicochemical; conditions: water
# Protocol: (§1) As used herein, the term “particle size distribution” is expressed in terms of D90, D50 and D10, which corresponds to the diameter of 90 percent by volume of the particles, 50 percent by volume of the particles and 10 percent by volume of the particles are present, respectively.
# (§2) The particle size distribution of pirfenidone is measured utilizing: Instrument model: Malvern; Mastersizer 3000; particle refraction index of sample: 1.700; Absorption: 0.01 and Analysis model: general purpose, normal sensitivity, non-spherical particles.
# Pirfenidone (Particle size distribution: D10: 1330 μm; D50: 1950 μm and D90: 2840 μm) and Water (3 vol) were charged into IKA colloid mill at 25° C. to 35° C. and circulated the reaction mass at 25° C. to 35° C. till required particle size was obtained. Particle size distribution of the sample with different time interval was monitored by collecting the sample from reaction mass. After achieving the required particle size, stirred the reaction mixture for 30-60 min at 25° C. to 35° C. Further, the reaction mixture temperature was allowed to cool to 0° C. to 5° C. and stirred for 2-3 hrs at same temperature. Filter the solid and washed with the wet cake with chilled water (0.5 vol), dried the solid in an oven under vacuum at 60° C. for 4-6 hours.
# The following examples were performed using the above described process with different circulation time and different rpm and obtained results are tabulated as below: […]
# [2] = milled through a loop mill, US 8,519,140; cited from earlier work
# [3] = Particle size distribution after ultra sonication by sonoprocessor (RTUL 10SP-20-3000-SD); assay type: physicochemical; conditions: ultra sonication in water
# Protocol: as §1, §2
# Water (300 mL) and Pirfenidone (200 gr; Particle size distribution: D10: 1330 μm; D50: 1950 μm and D90: 2840 μm) were charged into reaction vessel at 25° C. to 35° C. and was placed Sonoprocessor into the reaction mass till required particle size was obtained at 25° C. to 35° C. Particle size distribution of the sample with different time interval was monitored by collecting the sample from reaction mass. After achieving the required particle size, stirred the reaction mixture for 30-60 min at 25° C. to 35° C. Further, the reaction mixture temperature was allowed to cool to 0° C. to 5° C. and stirred for 2-3 hrs at same temperature. Filter the solid and washed the wet cake with chilled water (100 mL), dried the solid in an oven under vacuum at 60° C. for 4-6 hours.
# The following examples were performed using the above described process with different rpm and time; the obtained results are tabulated below: […]
# [4] = 3000 rpm, circulation time 60 mim
# [5] = 3000 rpm, circulation time 120 mim
# [6] = 3000 rpm, circulation time 30 min
# [7] = 5000 rpm, circulation time 5 min
# [8] = 5000 rpm, circulation time 60 min
# [9] = 6000 rpm, circulation time 45 min
# [10] = 6000 rpm, circulation time 1 hour
# [11] = 6000 rpm, circulation time 2 hours, listed as 1A, 20 kg pirfenidone input
# [12] = 6000 rpm, circulation time 2 hours, listed as 1B, 200 kg pirfenidone input
# [13] = 6000 rpm, circulation time 3 hours, listed as 1A, 20 kg pirfenidone input
# [14] = 6000 rpm, circulation time 3 hours, listed as 1B, 200 kg pirfenidone input
# [15] = 6000 rpm, circulation time 4 hours, listed as 1A, 20 kg pirfenidone input
# [16] = 6000 rpm, circulation time 4 hours, listed as 1B, 200 kg pirfenidone input
# [17] = 6000 rpm, circulation time 5 hours, listed as 1A, 20 kg pirfenidone input
# [18] = 6000 rpm, circulation time 5 hours, listed as 1B, 200 kg pirfenidone input
# [19] = 6000 rpm, circulation time 6 hours, listed as 1A, 20 kg pirfenidone input
# [20] = 6000 rpm, circulation time 6 hours, listed as 1B, 200 kg pirfenidone input
# [21] = 6000 rpm, circulation time 7 hours
# [22] = 6000 rpm, circulation time 8 hours, listed as 1B, 200 kg pirfenidone input
# [23] = 6000 rpm, circulation time 8 hours, listed as 1C, 80 kg pirfenidone input
# [24] = 6000 rpm, circulation time 9 hours
# [25] = 6000 rpm, circulation time 10 hours, listed as 1B, 200 kg pirfenidone input
# [26] = 6000 rpm, circulation time 10 hours, listed as 1C, 80 kg pirfenidone input
# [27] = 6000 rpm, circulation time 12 hours, listed as 1B, 200 kg pirfenidone input
# [28] = 6000 rpm, circulation time 12 hours, listed as 1C, 80 kg pirfenidone input
# [29] = 6000 rpm, circulation time 14 hours
# [30] = 6000 rpm, circulation time 16 hours
# [31] = 6000 rpm, circulation time 19 hours
# [32] = 8000 rpm, circulation time 5 min
compound,measurement,setting,value
"Cc1ccc(=O)n(-c2ccccc2)c1 [Pirfenidone, 5-methyl-1-phenyl-2-1(H)-pyridone]",PSD D10,[1]; [4],12 μm
same,PSD D50,[1]; [4],33 μm
same,PSD D90,[1]; [4],123 μm
same,PSD D10,[1]; [5],13 μm
same,PSD D50,[1]; [5],33 μm
same,PSD D90,[1]; [5],82 μm
same,PSD D10,[1]; [6],28 μm
same,PSD D50,[1]; [6],87 μm
same,PSD D90,[1]; [6],185 μm
same,PSD D10,[1]; [7],11 μm
same,PSD D50,[1]; [7],40 μm
same,PSD D90,[1]; [7],99 μm
same,PSD D10,[1]; [8],11 μm
same,PSD D50,[1]; [8],36 μm
same,PSD D90,[1]; [8],89 μm
same,PSD D10,[1]; [9],41 μm
same,PSD D50,[1]; [9],48 μm
same,PSD D90,[1]; [9],285 μm
same,PSD D10,[1]; [10],30 μm
same,PSD D50,[1]; [10],105 μm
same,PSD D90,[1]; [10],206 μm
same,PSD D10,[1]; [11],28 μm
same,PSD D50,[1]; [11],72 μm
same,PSD D90,[1]; [11],165 μm
same,PSD D10,[1]; [12],34 μm
same,PSD D50,[1]; [12],124 μm
same,PSD D90,[1]; [12],257 μm
same,PSD D10,[1]; [13],26 μm
same,PSD D50,[1]; [13],61 μm
same,PSD D90,[1]; [13],143 μm
same,PSD D10,[1]; [14],34 μm
same,PSD D50,[1]; [14],116 μm
same,PSD D90,[1]; [14],236 μm
same,PSD D10,[1]; [15],23 μm
same,PSD D50,[1]; [15],54 μm
same,PSD D90,[1]; [15],129 μm
same,PSD D10,[1]; [16],32 μm
same,PSD D50,[1]; [16],106 μm
same,PSD D90,[1]; [16],222 μm
same,PSD D10,[1]; [17],22 μm
same,PSD D50,[1]; [17],53 μm
same,PSD D90,[1]; [17],117 μm
same,PSD D10,[1]; [18],33 μm
same,PSD D50,[1]; [18],106 μm
same,PSD D90,[1]; [18],217 μm
same,PSD D10,[1]; [19],21 μm
same,PSD D50,[1]; [19],49 μm
same,PSD D90,[1]; [19],107 μm
same,PSD D10,[1]; [20],29 μm
same,PSD D50,[1]; [20],101 μm
same,PSD D90,[1]; [20],200 μm
same,PSD D10,[1]; [21],31 μm
same,PSD D50,[1]; [21],94 μm
same,PSD D90,[1]; [21],200 μm
same,PSD D10,[1]; [22],28 μm
same,PSD D50,[1]; [22],84 μm
same,PSD D90,[1]; [22],187 μm
same,PSD D10,[1]; [23],21 μm
same,PSD D50,[1]; [23],57 μm
same,PSD D90,[1]; [23],132 μm
same,PSD D10,[1]; [24],28 μm
same,PSD D50,[1]; [24],80 μm
same,PSD D90,[1]; [24],180 μm
same,PSD D10,[1]; [25],27 μm
same,PSD D50,[1]; [25],69 μm
same,PSD D90,[1]; [25],155 μm
same,PSD D10,[1]; [26],22 μm
same,PSD D50,[1]; [26],55 μm
same,PSD D90,[1]; [26],122 μm
same,PSD D10,[1]; [27],25 μm
same,PSD D50,[1]; [27],61 μm
same,PSD D90,[1]; [27],150 μm
same,PSD D10,[1]; [28],22 μm
same,PSD D50,[1]; [28],54 μm
same,PSD D90,[1]; [28],121 μm
same,PSD D10,[1]; [29],21 μm
same,PSD D50,[1]; [29],47 μm
same,PSD D90,[1]; [29],98 μm
same,PSD D10,[1]; [30],21 μm
same,PSD D50,[1]; [30],47 μm
same,PSD D90,[1]; [30],96 μm
same,PSD D10,[1]; [31],22 μm
same,PSD D50,[1]; [31],46 μm
same,PSD D90,[1]; [31],93 μm
same,PSD D10,[1]; [32],9 μm
same,PSD D50,[1]; [32],35 μm
same,PSD D90,[1]; [32],85 μm
same,particle size,[2],less than 150 μm
same,PSD D10,[3]; sonication time 30 min,44 μm
same,PSD D50,[3]; sonication time 30 min,145 μm
same,PSD D90,[3]; sonication time 30 min,245 μm
same,PSD D10,[3]; sonication time 60 min,26 μm
same,PSD D50,[3]; sonication time 60 min,101 μm
same,PSD D90,[3]; sonication time 60 min,189 μm
same,PSD D10,[3]; sonication time 120 min,19 μm
same,PSD D50,[3]; sonication time 120 min,68 μm
same,PSD D90,[3]; sonication time 120 min,150 μm
same,PSD D10,[3]; sonication time 180 min,13 μm
same,PSD D50,[3]; sonication time 180 min,48 μm
same,PSD D90,[3]; sonication time 180 min,109 μm
